Assay results as given in the supplement of paper PMC11061612.

Key:
Assay in all cases: Bliss excess, mean over the matrix (fraction); higher = more synergy
[1] = test system: TK (B-Cell Non-Hodgkin's Lymphoma)
In short: (§1)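 After 24 hours at 37°C and 5% CO2 in 1536-well plates, cells in DMEM/F12 or RPMI plus 10% FBS received two-drug dose matrices for 72 hours. Viability came from CellTiter-Glo 2.0 luminescence and was scaled as inhibition, anchored at 0 by vehicle wells and at 1 by blank wells. Combination Emax is taken as the second-highest inhibition in the matrix, and Bliss excess as the observed combination effect less EA + EB − EA·EB, with EA and EB the single-agent effects.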

[2] = test system: L-363 (Plasma Cell Myeloma)
In short: as §1

[3] = test system: MG-63 (Osteosarcoma)
In short: as §1

[4] = test system: C32 (Melanoma)
In short: as §1

[5] = test system: NCI-H2452 (Mesothelioma)
In short: as §1

[6] = test system: SW1463 (Colorectal Carcinoma)
In short: as §1

[7] = test system: COR-L105 (Lung Adenocarcinoma)
In short: as §1

[8] = test system: ATN-1 (T-Lymphoblastic Leukemia)
In short: as §1

[9] = test system: NCI-H1944 (Lung Adenocarcinoma)
In short: as §1

[10] = test system: SBC-3 (Small Cell Lung Carcinoma)
In short: as §1

[11] = test system: IGROV-1 (Ovarian Carcinoma)
In short: as §1

[12] = test system: OCI-M1 (Acute Myeloid Leukemia)
In short: as §1

[13] = test system: CAL-85-1 (Breast Carcinoma)
In short: as §1

[14] = test system: JURL-MK1 (Chronic Myelogenous Leukemia)
In short: as §1

[15] = test system: NCI-H2009 (Lung Adenocarcinoma)
In short: as §1

[16] = test system: NCI-H835 (Other Solid Carcinomas)
In short: as §1

[17] = test system: BT-474 (Breast Carcinoma)
In short: as §1

[18] = test system: NCI-H1435 (Non-Small Cell Lung Carcinoma)
In short: as §1

[19] = test system: NTERA-2-cl-D1 (Other Solid Carcinomas)
In short: as §1

[20] = test system: C2BBe1 (Colorectal Carcinoma)
In short: as §1

Compound	Bliss excess [1]	Bliss excess [2]	Bliss excess [3]	Bliss excess [4]	Bliss excess [5]	Bliss excess [6]	Bliss excess [7]	Bliss excess [8]	Bliss excess [9]	Bliss excess [10]	Bliss excess [11]	Bliss excess [12]	Bliss excess [13]	Bliss excess [14]	Bliss excess [15]	Bliss excess [16]	Bliss excess [17]	Bliss excess [18]	Bliss excess [19]	Bliss excess [20]
COc1cccc2c1C(=O)c1c(O)c3c(c(O)c1C2=O)C[C@@](O)(C(=O)CO)C[C@@H]3O[C@H]1C[C@H](N)[C@H](O)[C@H](C)O1 [Doxorubicin] + Cc1cc2ncnn2cc1Nc1ncc2c(n1)n(C1CCOCC1)c(=O)n2C [AZD7648] (first compound max 1 µM, 7x7, partner max 10 µM)	0.0292	0.0622	0.0908	0.044	0.0928	-0.0363	0.022	0.0967	0.0739	0.0553	0.0222	0.102	0.0095	0.0792	0.0653	0.0207	-0.0356	0.0002	0.0426	-0.0082
Cn1cnc2c(F)c(Nc3ccc(Br)cc3Cl)c(C(=O)NOCCO)cc21 [Selumetinib] + C=CCn1c(=O)c2cnc(Nc3ccc(N4CCN(C)CC4)cc3)nc2n1-c1cccc(C(C)(C)O)n1 [AZD1775] (first compound max 10 µM, partner max 1 µM)	-0.0478	-0.0042	-0.0327	-0.0036	-0.0288	-0.0367	0.0203	-0.0253	-0.0481	-0.0655	-0.0444	0	-0.063	0.0067	0.0308	-0.0223	-0.0466	0.0007	0.0314	-0.0398
COc1nnc2ccc(N3CCC(c4ccc(OCCN5CCN(C)C(=O)[C@H]5C)cc4)CC3)nn12 [AZD5153] + CC1(C)CCC(CN2CCN(c3ccc(C(=O)NS(=O)(=O)c4ccc(NCC5CCOCC5)c([N+](=O)[O-])c4)c(Oc4cnc5[nH]ccc5c4)c3)CC2)=C(c2ccc(Cl)cc2)C1 [Venetoclax] (first compound max 1 µM, 7x7, partner max 1 µM)	0.0193	-0.101	-0.0509	-0.0383	0.0059	-0.058	-0.0006	-0.0279	-0.0824	-0.0545	-0.0416	-0.062	-0.0582	-0.0676	-0.0432	-0.125	-0.078	-0.0143	-0.0251	-0.0234
CC(=O)c1c(C)c2cnc(Nc3ccc(N4CCNCC4)cn3)nc2n(C2CCCC2)c1=O [Palbociclib] + CC1(C)CCC(CN2CCN(c3ccc(C(=O)NS(=O)(=O)c4ccc(NCC5CCOCC5)c([N+](=O)[O-])c4)c(Oc4cnc5[nH]ccc5c4)c3)CC2)=C(c2ccc(Cl)cc2)C1 [Venetoclax] (first compound max 10 µM, 7x7, partner max 1 µM)	0.0332	-0.0262	0.0196	-0.0322	-0.0188	-0.0899	-0.0399	0.0869	0.0257	-0.038	0.0026	0.007	-0.0457	-0.0716	-0.0543	-0.143	-0.0444	-0.0191	-0.0389	-0.0656
COc1cccc(OCCCN)c1-c1cc(Nc2cnc(C#N)cn2)n[nH]1 [Prexasertib] + CCc1c2c(nc3ccc(O)cc13)-c1cc3c(c(=O)n1C2)COC(=O)[C@]3(O)CC [SN-38] (first compound max 1 µM, 7x7, partner max 0.3 µM)	0.0138	0.0377	-0.0315	-0.126	0.103	0.0515	-0.0404	0.0005	-0.006	-0.0766	-0.0131	-0.0042	0.0699	-0.0109	0.132	-0.0014	-0.0075	0.0171	0.0728	-0.0103
COc1nnc2ccc(N3CCC(c4ccc(OCCN5CCN(C)C(=O)[C@H]5C)cc4)CC3)nn12 [AZD5153] + Cn1cnc2c(F)c(Nc3ccc(Br)cc3Cl)c(C(=O)NOCCO)cc21 [Selumetinib] (first compound max 1 µM, 7x7, partner max 10 µM)	-0.0524	0.0188	-0.0246	0.0709	-0.029	0.0243	0.0622	0.0098	-0.0008	-0.0811	-0.0391	0.0301	-0.0298	0.0397	-0.0123	-0.0256	-0.0245	0.0113	0.0236	0.0114
Cn1cnc2c(F)c(Nc3ccc(Br)cc3Cl)c(C(=O)NOCCO)cc21 [Selumetinib] + CC(C)n1c(=O)n(C)c2cnc3cc(F)c(-c4ccc(OCCCN5CCCCC5)nc4)cc3c21 [AZD1390] (first compound max 10 µM, 7x7, partner max 0.3 µM)	-0.0134	-0.0252	-0.0037	-0.0244	-0.0732	-0.0078	0.0019	-0.0318	-0.0306	-0.0592	-0.0204	0.0164	-0.0039	-0.0296	-0.0254	-0.0464	-0.0469	-0.0087	0.0052	-0.05
COc1cccc(OCCCN)c1-c1cc(Nc2cnc(C#N)cn2)n[nH]1 [Prexasertib] + C[C@@H]1COCCN1C2=NC(=NC(=C2)C3(CC3)[S@](=N)(=O)C)C4=C5C=CNC5=NC=C4 [AZD6738] (first compound max 1 µM, 7x7, partner max 10 µM)	-0.083	-0.0104	0.0234	-0.0529	-0.0061	0.0004	-0.0425	-0.0207	0.0168	-0.0201	-0.0567	-0.0504	0.05	0.0056	0.0846	0.0548	-0.0233	0.0676	0.0172	0.0009
COc1nnc2ccc(N3CCC(c4ccc(OCCN5CCN(C)C(=O)[C@H]5C)cc4)CC3)nn12 [AZD5153] + CCN(CCO)CCCOc1ccc2c(Nc3cc(CC(=O)Nc4cccc(F)c4)[nH]n3)ncnc2c1 [AZD2811] (first compound max 1 µM, 7x7, partner max 1 µM)	0.0124	-0.0259	-0.037	0.0199	-0.0574	-0.0452	-0.0092	-0.127	-0.0185	-0.0225	-0.0574	0.06	-0.0411	-0.0258	-0.0155	-0.0626	-0.0197	0.0052	-0.0385	-0.0364
COc1nnc2ccc(N3CCC(c4ccc(OCCN5CCN(C)C(=O)[C@H]5C)cc4)CC3)nn12 [AZD5153] + C[C@@H]1COCCN1C2=NC(=NC(=C2)C3(CC3)[S@](=N)(=O)C)C4=C5C=CNC5=NC=C4 [AZD6738] (first compound max 1 µM, 7x7, partner max 10 µM)	0.0034	-0.0453	0.0223	0.0069	0.0045	-0.074	-0.0092	0.0411	0.0234	-0.032	0.0079	-0.0165	-0.006	0.0077	0.081	-0.0811	0.0788	0.0222	0.0005	-0.0066
NC1(C(=O)N[C@@H](CCO)c2ccc(Cl)cc2)CCN(c2ncnc3[nH]ccc23)CC1 [Capivasertib] + CCN(CCO)CCCOc1ccc2c(Nc3cc(CC(=O)Nc4cccc(F)c4)[nH]n3)ncnc2c1 [AZD2811] (first compound max 10 µM, 7x7, partner max 1 µM)	0.0103	-0.0235	-0.0295	0.0477	-0.079	-0.0239	-0.0523	-0.0813	0.101	0.059	-0.0632	0.066	-0.0241	0.0026	0.0001	-0.103	0.0025	-0.0384	0.0106	-0.0382
Cn1cnc2c(F)c(Nc3ccc(Br)cc3Cl)c(C(=O)NOCCO)cc21 [Selumetinib] + CCN(CCO)CCCOc1ccc2c(Nc3cc(CC(=O)Nc4cccc(F)c4)[nH]n3)ncnc2c1 [AZD2811] (first compound max 10 µM, 7x7, partner max 1 µM)	0.0002	-0.0194	-0.0494	0.0124	-0.0726	0.0162	0.0147	-0.0981	0.068	-0.0518	-0.021	0.0927	0.0353	0.0645	-0.0059	-0.0289	-0.0419	-0.0112	0.0056	-0.0439
COc1nnc2ccc(N3CCC(c4ccc(OCCN5CCN(C)C(=O)[C@H]5C)cc4)CC3)nn12 [AZD5153] + C=CCn1c(=O)c2cnc(Nc3ccc(N4CCN(C)CC4)cc3)nc2n1-c1cccc(C(C)(C)O)n1 [AZD1775] (first compound max 1 µM, partner max 1 µM)	-0.0554	-0.0546	-0.0419	-0.0426	-0.0525	-0.101	-0.0063	-0.0494	0.0333	-0.0111	-0.0858	-0.0449	-0.0551	-0.0006	-0.0229	-0.0618	-0.0279	0.0179	0.0115	-0.0724
Cn1cnc2c(F)c(Nc3ccc(Br)cc3Cl)c(C(=O)NOCCO)cc21 [Selumetinib] + C[C@@H]1COCCN1C2=NC(=NC(=C2)C3(CC3)[S@](=N)(=O)C)C4=C5C=CNC5=NC=C4 [AZD6738] (first compound max 10 µM, 7x7, partner max 10 µM)	0.0005	-0.0207	0.0342	0.0236	-0.0476	-0.0121	0.0306	-0.024	0.01	-0.081	0.0211	0.0217	0.0508	0.0095	-0.0313	-0.0375	-0.0485	-0.0103	-0.009	-0.052
NC1(C(=O)N[C@@H](CCO)c2ccc(Cl)cc2)CCN(c2ncnc3[nH]ccc23)CC1 [Capivasertib] + Cn1cnc2c(F)c(Nc3ccc(Br)cc3Cl)c(C(=O)NOCCO)cc21 [Selumetinib] (first compound max 10 µM, 7x7, partner max 10 µM)	-0.0189	0.0156	-0.0011	0.0905	-0.092	-0.0255	-0.0333	0.0055	0.0543	-0.0353	-0.0493	0.0825	-0.0429	0.0263	-0.0191	-0.027	0.0509	0.0234	0.0064	-0.0036
